Test system: 521955-158-R2-J5-PDC complex spheroid viability
Test: Anticancer human tumor 521955-158-R2-J5-PDC patient-derived pancreatic carcinoma cell line growth inhibition [GQUAD]
Details: for IC50: curve of first compound; for viability, T/C: stronger effect = lower value; active = viability on the fitted dose curve at most 10% of control; inactive = the rest
Outline: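 Viability of tumor cells grown as complex spheroids with endothelial and stromal cells, exposed to drug combinations. Top concentration at or near clinical Cmax (else 10 microM), diluted in half-log increments.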

[1] = second compound 0.0316 µM, first compound 0.0316 µM
[2] = second compound 0.0316 µM, first compound 0.316 µM
[3] = second compound 0.1 µM, first compound 0.0316 µM
[4] = second compound 0.1 µM, first compound 0.316 µM
[5] = second compound 0.316 µM, first compound 0.0316 µM
[6] = second compound 0.316 µM, first compound 0.316 µM
[7] = second compound 1 µM, first compound 0.0316 µM
[8] = second compound 1 µM, first compound 0.316 µM
[9] = second compound 3.16 µM, first compound 0.0316 µM
[10] = second compound 3.16 µM, first compound 0.316 µM
[11] = second compound 10 µM, first compound 0.0316 µM
[12] = second compound 10 µM, first compound 0.316 µM
[13] = second compound 0.0316 µM, first compound 0.1 µM
[14] = second compound 0.0316 µM, first compound 1 µM
[15] = second compound 0.0316 µM, first compound 3.16 µM
[16] = second compound 0.0316 µM, first compound 10 µM
[17] = second compound 0.1 µM, first compound 0.1 µM
[18] = second compound 0.1 µM, first compound 1 µM
[19] = second compound 0.1 µM, first compound 3.16 µM
[20] = second compound 0.1 µM, first compound 10 µM
[21] = second compound 0.316 µM, first compound 0.1 µM
[22] = second compound 0.316 µM, first compound 1 µM
[23] = second compound 0.316 µM, first compound 3.16 µM
[24] = second compound 0.316 µM, first compound 10 µM
[25] = second compound 1 µM, first compound 0.1 µM
[26] = second compound 1 µM, first compound 1 µM
[27] = second compound 1 µM, first compound 3.16 µM
[28] = second compound 1 µM, first compound 10 µM
[29] = second compound 3.16 µM, first compound 0.1 µM
[30] = second compound 3.16 µM, first compound 1 µM
[31] = second compound 3.16 µM, first compound 3.16 µM
[32] = second compound 3.16 µM, first compound 10 µM
[33] = second compound 10 µM, first compound 0.1 µM
[34] = second compound 10 µM, first compound 1 µM
[35] = second compound 10 µM, first compound 3.16 µM
[36] = second compound 10 µM, first compound 10 µM
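Also: spheroids exposed to agents for one week before reading.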
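For viability, T/C in this document: 100% = DMSO vehicle control viability.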

CC[C@@]1(O)C(=O)OCc2c1cc1n(c2=O)Cc2cc3c(CN(C)C)c(O)ccc3nc2-1 + CN(C)c1ccc(Nc2c3ccc(NC(=O)CCN4CCCC4)cc3nc3cc(NC(=O)CCN4CCCC4)ccc23)cc1
79.3 nM: IC50 (second compound 10 µM)
93.7 nM: IC50 (second compound 0.1 µM)
121 nM: IC50 (second compound 0.0316 µM)
inactive: viability, T/C (second compound 0.0316 µM, first compound 0.000999 µM) 106% | viability, T/C (second compound 0.0316 µM, first compound 0.00316 µM) 118% | viability, T/C (second compound 0.0316 µM, first compound 0.00999 µM) 110% | viability, T/C [1] 86.7% | viability, T/C (second compound 0.0316 µM, first compound 0.0999 µM) 55.8% | viability, T/C [2] 28.2% | viability, T/C (second compound 0.1 µM, first compound 0.000999 µM) 85.3% | viability, T/C (second compound 0.1 µM, first compound 0.00316 µM) 108% | viability, T/C (second compound 0.1 µM, first compound 0.00999 µM) 95.1% | viability, T/C [3] 82.2% | viability, T/C (second compound 0.1 µM, first compound 0.0999 µM) 48.2% | viability, T/C [4] 41.2% | viability, T/C (second compound 0.316 µM, first compound 0.000999 µM) 101% | viability, T/C (second compound 0.316 µM, first compound 0.00316 µM) 98.5% | viability, T/C (second compound 0.316 µM, first compound 0.00999 µM) 98.7% | viability, T/C [5] 89.4% | viability, T/C (second compound 0.316 µM, first compound 0.0999 µM) 44.3% | viability, T/C [6] 28.6% | viability, T/C (second compound 1 µM, first compound 0.000999 µM) 131% | viability, T/C (second compound 1 µM, first compound 0.00316 µM) 91.6% | viability, T/C (second compound 1 µM, first compound 0.00999 µM) 95.7% | viability, T/C [7] 82.8% | viability, T/C (second compound 1 µM, first compound 0.0999 µM) 43.1% | viability, T/C [8] 24.9% | viability, T/C (second compound 3.16 µM, first compound 0.000999 µM) 101% | viability, T/C (second compound 3.16 µM, first compound 0.00316 µM) 101% | viability, T/C (second compound 3.16 µM, first compound 0.00999 µM) 81.2% | viability, T/C [9] 76.9% | viability, T/C (second compound 3.16 µM, first compound 0.0999 µM) 41.2% | viability, T/C [10] 26.5% | viability, T/C (second compound 10 µM, first compound 0.000999 µM) 63.7% | viability, T/C (second compound 10 µM, first compound 0.00316 µM) 62.3% | viability, T/C (second compound 10 µM, first compound 0.00999 µM) 53.4% | viability, T/C [11] 63.5% | viability, T/C (second compound 10 µM, first compound 0.0999 µM) 45.2% | viability, T/C [12] 31.4%
96.7 nM: IC50 (second compound 1 µM)
86.4 nM: IC50 (second compound 0.316 µM)
80.1 nM: IC50 (second compound 3.16 µM)

CC(=O)O[C@H]1C(=O)[C@@]2(C)[C@H]([C@H](OC(=O)c3ccccc3)[C@]3(O)C[C@H](OC(=O)[C@H](O)[C@@H](NC(=O)c4ccccc4)c4ccccc4)C(C)=C1C3(C)C)[C@]1(OC(C)=O)CO[C@@H]1C[C@@H]2O + CN(C)c1ccc(Nc2c3ccc(NC(=O)CCN4CCCC4)cc3nc3cc(NC(=O)CCN4CCCC4)ccc23)cc1
31.7 nM: IC50 (second compound 3.16 µM)
< 31.6 nM: IC50 (second compound 0.0316 µM) | IC50 (second compound 0.316 µM) | IC50 (second compound 1 µM) | IC50 (second compound 10 µM)
44.8 nM: IC50 (second compound 0.1 µM)
inactive: viability, T/C [1] 46.1% | viability, T/C [13] 40.9% | viability, T/C [2] 35.2% | viability, T/C [14] 32.3% | viability, T/C [15] 27.5% | viability, T/C [16] 34.7% | viability, T/C [3] 55.7% | viability, T/C [17] 37.6% | viability, T/C [4] 30.8% | viability, T/C [18] 23% | viability, T/C [19] 33.9% | viability, T/C [20] 29.9% | viability, T/C [5] 47.7% | viability, T/C [21] 34.1% | viability, T/C [6] 28% | viability, T/C [22] 22.7% | viability, T/C [23] 29.4% | viability, T/C [24] 33.1% | viability, T/C [7] 54.6% | viability, T/C [25] 33% | viability, T/C [8] 28.3% | viability, T/C [26] 33.9% | viability, T/C [27] 39.4% | viability, T/C [28] 38.5% | viability, T/C [9] 50% | viability, T/C [29] 31.1% | viability, T/C [10] 30.3% | viability, T/C [30] 31.5% | viability, T/C [31] 33.4% | viability, T/C [32] 42% | viability, T/C [11] 50.9% | viability, T/C [33] 35.2% | viability, T/C [12] 36.4% | viability, T/C [34] 27.8% | viability, T/C [35] 29.9% | viability, T/C [36] 35.2%

C=CC(=O)N1CCN(c2nc(=O)n(-c3c(C)ccnc3C(C)C)c3nc(-c4c(O)cccc4F)c(F)cc23)C(C)C1 (stereo unspecified) + Cc1cnc(CNC(=O)c2c(=O)c3ccc(N4CCCN(C)CC4)nc3n3c2sc2ccccc23)cn1
> 10000 nM: IC50 (second compound 0.0316 µM) | IC50 (second compound 0.1 µM)
< 31.6 nM: IC50 (second compound 0.316 µM) | IC50 (second compound 1 µM) | IC50 (second compound 3.16 µM) | IC50 (second compound 10 µM)
inactive: viability, T/C [1] 81% | viability, T/C [13] 70.8% | viability, T/C [2] 84.4% | viability, T/C [14] 79.2% | viability, T/C [15] 77% | viability, T/C [16] 72.2% | viability, T/C [3] 60.3% | viability, T/C [17] 55.3% | viability, T/C [4] 56.1% | viability, T/C [18] 57.3% | viability, T/C [19] 61.5% | viability, T/C [20] 52.9% | viability, T/C [5] 36.6% | viability, T/C [21] 32.1% | viability, T/C [6] 33.7% | viability, T/C [22] 46.9% | viability, T/C [23] 49.1% | viability, T/C [24] 32.1% | viability, T/C [7] 21.5% | viability, T/C [25] 20.2% | viability, T/C [8] 19.7% | viability, T/C [26] 26.2% | viability, T/C [27] 21.7% | viability, T/C [28] 19.3% | viability, T/C [9] 22.8% | viability, T/C [29] 17.6% | viability, T/C [10] 19.9% | viability, T/C [30] 20.5% | viability, T/C [31] 25% | viability, T/C [32] 18.4% | viability, T/C [11] 18.4% | viability, T/C [33] 18.5% | viability, T/C [12] 20.9% | viability, T/C [34] 18% | viability, T/C [35] 13.7% | viability, T/C [36] 15.8%

Source: PubChem BioAssay AID2060495 (Molecular Pharmacology Branch, DTP, NCI, 2025)
